Laboratory results as given in PMC5228037, “Discovery and Mechanistic Characterization of Selective Inhibitors of H2S-producing Enzyme: 3-Mercaptopyruvate Sulfurtransferase (3MST) Targeting Active-site Cysteine Persulfide” (Scientific Reports, 2017).

Key:
[1] = Reactivity test toward 3MP and DTT (2nd screening, no enzyme); details: 50 μM 3MP, 40 μM DTT, no 3MST, mean±S.D. n = 4
Description: Reactivity of the hit compounds toward 3MP and DTT was examined. The final concentration of the compounds was 10 or 50 μM. The assay protocol was as follows: compounds were diluted with HSip-1 solution to 20 or 100 μM solution (10% DMSO) with a Multi-Drop Combi. Next, 3MP and DTT solution (10 μL, final concentrations: 50 μM 3MP and 40 μM DTT) was dispensed into the plates (total volume was 20 μL, 5% DMSO), and the plates were incubated at room temperature for 3 hr. The fluorescence of HSip-1 was measured (λex = 485 nm, λem = 520 nm) with a microplate reader (PHERAstar PLUS). Background control wells (i.e., no addition wells instead of addition of 3MP and DTT, n = 16) were also prepared for all plates.
Supplementary Note 3. […]
The second screening, which is a non-enzymatic assay, was performed to eliminate false-positive hit compounds such as naphthoquinone that react with the substrates, e.g., 3MP and DTT. Even in […]
μM 3MP and 40 μM DTT. The fluorescence increase in the presence or the absence of 3MP and DTT was regarded as 100% or 0% fluorescence signal, respectively, and we evaluated the ability of each compound (10 μM and 50 μM) to inhibit the fluorescence increase caused by the reaction with 3MP and DTT. In this assay, we selected compounds showing ‒25% ≤ inhibitory activity at both 10 and 50 μM ≤ 50% (545 compounds). Then, we further selected compounds showing more than 60% inhibitory activity in the previous confirmation test among 545 compounds (146 hit compounds) (Supplementary Fig. S7). These compounds were considered not to react with 3MP and DTT, at least in this concentration range. […]

[2] = target: T1, rhodanese (thiosulfate sulfurtransferase, Type II) (Bos taurus, UniProt P00586); experiment: Rhodanese activity, conversion of cyanide to thiocyanide (Sörbo method); format: biochemical, bovine; details: 100 μM compound; room temperature 5 min; mean ± S.D.
T1 construct: Bovine liver rhodanese; purchased Sigma-Aldrich; host or cells: bovine liver
T1 sequence (P00586 1-297): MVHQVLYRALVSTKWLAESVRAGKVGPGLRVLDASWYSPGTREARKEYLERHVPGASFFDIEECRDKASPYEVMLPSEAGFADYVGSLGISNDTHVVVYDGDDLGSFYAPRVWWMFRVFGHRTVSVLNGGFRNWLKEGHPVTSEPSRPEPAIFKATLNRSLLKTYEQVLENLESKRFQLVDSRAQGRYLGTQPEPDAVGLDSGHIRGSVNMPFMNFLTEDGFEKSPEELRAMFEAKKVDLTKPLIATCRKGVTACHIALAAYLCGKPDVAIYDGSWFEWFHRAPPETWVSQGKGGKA
Description: Figure 2 Selectivity assessment of hit compounds for 3MST over other H2S/polysulfides-producing enzymes and rhodanese. (a) 3MST-Inhibitory activity of hit compounds at 10 and 100 μM in cell lysate of 3MST-expressing HEK293 cells. 100 μM 3MP and 100 μM DTT were added to the solution containing 0.1% DMSO as a cosolvent, and the mixture was incubated at 37 °C for 15 min. H2S production was measured by gas chromatography. All data are presented as the mean ± S.D. (100 μM: n = 3 or 4; 10 μM: n = 3). (b) Selectivity assessment of hit compounds at 100 μM towards CBS and CSE. Only DMSO was added to the control sample instead of DMSO solution containing hit compounds. H2S production was monitored by gas chromatography. All data are presented as the mean (n = 3). (c) Detection method for rhodanese activity (Sörbo method). (d) Selectivity assessment of hit compounds towards rhodanese. The results are mean ± S.D. (n = 4, three times). These values were determined based upon the absorbance of [Fe(SCN)3] at 460 nm (Sӧrbo method). Bovine rhodanese 1.3–1.7 units/mL, substrate: 52 mM Na2S2O3, 50 mM KCN, 0.004% (w/v) BSA, 100 μM compound and DMSO 1% (v/v) in 88 mM potassium phosphate buffer (pH 8.6) at room temperature for 5 min incubation. (e) Fluorescence confocal microscopic images of live COS7 cells transfected with 3MST or an empty vector[9] as a control. Cells were incubated with 50 μM SSP4, a fluorescent probe for sulfane sulfur, and 10 μM, 1 μM, 0.5 μM, 0.1 or 0 μM compound 3 in DMEM containing 0.6% DMSO for 30 min, then washed with HBSS and placed in fresh DMEM with 0‒10 μM compound 3 (Pre). 500 μM 3MP was added to the cells and the cells were incubated for 10 min (10 min). (f) Graphic representation of (e). F/F0 was calculated by dividing the fluorescence intensity of cells after addition of 500 μM 3MP (10 min) by that of cells before addition of 500 μM 3MP (Pre), then the mean F/F0 was determined from 5 cells. All data represent the mean ± standard error of the mean (SEM) of three experiments.
Following reagents were prepared.
B. 125 mM sodium thiosulfate (Na2S2O3) solution
C. 250 mM potassium cyanide (KCN) solution in reagent A
D. 14% (w/v) nitric acid (HNO3) solution
E. 410 mM ferric nitrate (Fe(NO3)3) in reagent D
F. 37% formaldehyde solution
G. 12.5 mM sodium thiosulfate (Na2S2O3) solution with 0.025% bovine serum albumin H. rhodanese solution in reagent G […]
Mixed by pipetting and equilibrate d to room
Reagent H (Enzyme Solution) 16 µL 16 µL - Mixed by pipetting and incubate d at 25℃ for exactly 5 minutes , and then added […]
Mixed by pipetting and then added […]
Mixed by pipetting , transferred the solution 44 µL 44 µL 44 µL […]
Mixed by pipetting and recorded the A460 nm for the Test, Control and Blank using a microplate […]
Supplementary Figure S10. […]

No Enzyme: inhibition of HSip-1 fluorescence increase caused by 3MP and DTT ([1]; 10 μM compound)	No Enzyme: inhibition of HSip-1 fluorescence increase caused by 3MP and DTT ([1]; 50 μM compound)	Inhibition of rhodanese conversion of cyanide ions to thiocyanide ions [2]	SMILES
10.1±6.2%	17.2±4.0%	18.2 ± 3.6%	NC(=O)c1ccsc1NC(=O)CSc1nc2ccccc2c(=O)[nH]1 [compound 1]
7.4±10.6%	-23.6±17.1%	10.9 ± 5.5%	Cc1sc2nc(SCC(=O)c3ccc(O)cc3O)[nH]c(=O)c2c1C [compound 2]
7.4±5.5%	6.3±4.5%	1.7 ± 6.7%	Cc1cc(=O)[nH]c(SCC(=O)c2cccc3ccccc23)n1 [compound 3]
11.4±4.9%	10.5±4.5%	9.7 ± 4.5%	O=C(O)c1cccc(NS(=O)(=O)c2ccccc2)c1 [compound 5]
